These are literature values, as cited in PMC12114947, “Evaluation of Violacein Metabolic Stability and Metabolite Identification in Human, Mouse, and Rat Liver Microsomes” (Pharmaceutics, 2025).

Like-named read-outs stand apart in the source and are kept apart here.

For series [1] the following is noted: cited from earlier work.
Details of series [2]: method as in PMID 12920490, PMID 24002099, PMID 10445386. Conditions: based on the human hepatic microsomal pathway; cited from earlier work.
The conditions of series [3]: cited from earlier work. This is another data set of the same source.
The conditions of series [4]: cited from earlier work. This is another data set of the same source.
For series [5] the following is noted: cited from earlier work. The source holds these as a separate data set.
Details of series [6]: method as in PMID 9408857. Conditions: humans; cited from earlier work.
Details of series [7]: method as in PMID 9408857. To be noted: rabbits; cited from earlier work.
On the set-up of series [8]: method as in PMID 9408857. To be noted: dogs; cited from earlier work.
Details of series [9]: method as in PMID 9408857. Conditions: rats; cited from earlier work.
On the set-up of series [10]: method as in PMID 38399311. To be noted: liver microsomes, mice; cited from earlier work.
On the set-up of series [11]: method as in PMID 38399311. Conditions: liver microsomes, humans; cited from earlier work.
Details of series [12]: method as in PMID 38399311. To be noted: liver microsomes, rats; cited from earlier work.
The conditions of series [13]: cited from earlier work. The source holds these as a separate data set.
For series [14] the following is noted: cited from earlier work. This is another data set of the same source.

As for `CO[C@H]1O[C@@H]2O[C@@]3(C)CC[C@H]4[C@H](C)CC[C@@H]([C@H]1C)[C@@]24OO3` [artemether], the Clearance in [1] (artemether alone) is 281.3 ± 67.3 mL/min/kg; in series [1] (co-administered with pyronaridine), 466.7 ± 36 mL/min/kg.

As to `OC(c1cc(C(F)(F)F)nc2c(C(F)(F)F)cccc12)C1CCCCN1` (stereo not shown) [mefloquine], in series [1] (in vivo), the Clearance is 0.33 to 0.83 mL/min/kg.

With `COc1cc(NC(C)CCCN)c2ncccc2c1` (stereo not shown) [primaquine], in [2], the “Estimated CLint, in vivo” value is listed as “approximately 0.017 mL/min/kg”.

On to `C[C@@H]1CC[C@H]2[C@@H](C)C(=O)O[C@@H]3O[C@@]4(C)CC[C@@H]1[C@]32OO4` [artemisinin], for which, in [3] (in vivo), the t1/2 is 1 to 2 h.

Take `CCN(CC)CCCC(C)Nc1ccnc2cc(Cl)ccc12` (stereo not shown) [chloroquine]: the Clearance in series [1] is 1.5 to 1.7 mL/min/kg.

On to `NC(Cc1cc(I)c(Oc2cc(I)c(O)c(I)c2)c(I)c1)C(=O)O` (stereo not shown) [thyroxine], for which the “CLint, in vitro” value in series [4] (human donor 1364) is listed as 0.61 mL/min/10^6 cells; in series [4] (human donor Hu1362), 0.56 mL/min/10^6 cells; in series [5] (rat 1) it was 1.08 mL/min/10^6 cells; in series [5] (rat 2) it was 0.75 mL/min/10^6 cells.

As for `CNS(=O)(=O)Cc1ccc2[nH]cc(CCN(C)C)c2c1` [sumatriptan], the Clearance entry in series [6] is “approximately 1.10 L/h/kg”; in series [7], 26 mL/min/kg; in [8], 14 mL/min/kg; in [9], 44.7 mL/min/kg.

Turning to `CCCCN(CCCC)CC(O)c1cc(Cl)cc2c1-c1ccc(Cl)cc1/C2=C/c1ccc(Cl)cc1` (stereo not shown) [lumefantrine], the t1/2 in series [3] (antimalarials) is 72 to 144 h.

As for `CCCC(NCC)C(=O)c1ccccc1` (stereo not shown) [N-ethyl pentedrone], the t1/2 in series [10] is 3.12 h; in series [11], 12.8 h; in series [12], 0.202 h.

For the compound `Cc1ncc2n1-c1ccc(Cl)cc1C(c1ccccc1F)=NC2` [midazolam], the “CLint, in vivo” value in series [13] (rat) is 79.2 mL/min/kg; in series [14] (human), 6.67 mL/min/kg. Besides, the t1/2 result was “about 31 min” in series [13] (rats) and 1.85 h in series [14] (humans).
